Reference: US20060100140A1, “Combination of a) n-{5-[4-(4-methyl-piperazino-methyl)-benzoylamido]2-methylphenyl}-4- (3-pyridyl)-2-pyrimidine-amine and b) a histone deacetylase inhibitor for the treatment of leukemia” (priority 2002, published 2006)

What was measured:
K562 cells = test: Apoptosis by morphological analysis of Wright Giemsa-stained cytospin preparations; assay type: cell-based, human; settings: K562; for effect of caspase inhibitor on Compound I/SAHA-induced apoptosis: Compound I + SAHA with 25 μM inhibitor
Description: (§1) Experimental Format: Logarithmically growing cells are placed in sterile plastic T-flasks (Corning, Corning, N.Y.) to which are added the designated drugs and the flasks replaced in the incubator for intervals. At the end of the incubation period, cells are transferred to sterile centrifuge tubes, pelleted by centrifugation at 400×g for 10 min at room temperature, and prepared for analysis as described below.
(§2) Assessment of Apoptosis: After drug exposures, cytocentrifuge preparations are stained with Wright-Giemsa and viewed by light microscopy to evaluate the extent of apoptosis (i.e., cell shrinkage, nuclear condensation, formation of apoptotic bodies, etc.) as described previously (Yu et al., Nat. Rev. Cancer 1:294-202). For these studies, the percentage of apoptotic cells is determined by evaluating ≧500 cells/condition in triplicate. To confirm the results of morphological analysis, Annexin V/PI staining is used. Annexin V/PI (BD PharMingen, San Diego, Calif.) analysis of cell death is carried out as per the manufacturer's instructions. In studies involving TNF and TNF soluble receptor, both compound are combined and maintained at room temperature 20 min prior to use. For these experiments 1-2×10^5 cells per condition are harvested. Analysis is carried out using a Becton-Dickinson FACScan cytofluorometer (Mansfield, Mass.). To further confirm the morphology results, TUNEL staining is used. For TUNEL staining, cytocentrifuge preparations are obtained and fixed with 4% formaldehyde. The slides are treated with acetic acid/ethanol (1:2), stained with terminal transferase reaction mixture containing 1× terminal transferase reaction buffer (0.25 units/μl terminal transferase, 2.5 mM CoCl2, and 2 pmol fluorescein-12-dUTM; Boehringer Mannheim, Indianapolis, Ind.), and visualized using fluorescence microscopy.

LAMA 84 cells = test: Apoptosis by cytospin slides; assay type: cell-based, human; settings: Table 6; LAMA 84; 24 hr; sodium butyrate (SB; 1 or 2 mM); Compound I concentration not given
Description: as §1, §2

Compound: COC(=O)CC(NC(=O)OC(C)(C)C)C(=O)CF (stereo not shown) [BOC-fmk]
- effect of caspase inhibitor on Compound I/SAHA-induced apoptosis (K562 cells): markedly inhibited apoptosis

Compound: CCCC(=O)[O-].[Na+] [SB, sodium butyrate]
- Compound I + SB % of apoptotic cells (LAMA 84 cells): 6.4 ± 2.8%
- Compound I + SB % of apoptotic cells (K562 cells; Table 6, 24 hr, sodium butyrate (SB; 1 or 2 mM), Compound I concentration not given): 5.1 ± 2.2%

Compound: IETD-fmk
- effect of caspase inhibitor on Compound I/SAHA-induced apoptosis (K562 cells): minimally effective
